Measured values published in ChEMBL document CHEMBL4350991, “Design, synthesis, and biological evaluation of rutacecarpine derivatives as multitarget-directed ligands for the treatment of Alzheimer's disease” (Eur J Med Chem, 2019).
Active and inactive are the calls of the source. No cut-off for these calls is given here.

How the values were obtained:
Acetylcholinesterase = Acetylcholinesterase (Electrophorus electricus, UniProt O42275); assay type: ADME
Description: Inhibition of electric eel AChE using acetylthiocholine iodide as substrate preincubated for 30 mins followed by substrate addition and measured after 30 mins by Ellman's method

PC-12 [1] = assay: cells; assay type: functional; conditions: Rattus norvegicus
PC-12 [2] = assay: cells; assay type: functional; conditions: Rattus norvegicus; remark: listed apart in the source
Cholinesterase = Cholinesterase (Equus caballus, UniProt P81908)
Description: Inhibition of equine serum BuChE using S-butyrylthiocholine iodide as substrate preincubated with enzyme for 30 mins followed by substrate addition and measured after 30 mins by Ellman's method

PC-12 [3] = assay: cells; assay type: functional; conditions: Rattus norvegicus; remark: listed apart in the source
PC-12 [4] = assay: cells; assay type: functional; conditions: Rattus norvegicus; remark: listed apart in the source
[5] = n-Octanol-phosphate buffer partition co-efficient, log P of compound at pH 7.4 incubated for 48 hrs by UV spectrophotometry-based shake-flask method; assay type: physicochemical
PC-12 [6] = assay: cells; assay type: functional; conditions: Rattus norvegicus; remark: listed apart in the source
[7] = target: Cholinesterase (Equus caballus) (UniProt P81908); assay: Mixed-type inhibition of equine serum BuChE up to 8 uM using varying levels of S-butyrylthiocholine iodide as substrate preincubated for 30 mins followed by substrate addition and measured after 30 mins by Lineweaver-Burk plot analysis
SH-SY5Y [8] = assay: Neuroprotective activity against amyloid beta (1 to 42 residues) induced cytotoxicity in human SH-SY5Y cells assessed as cell viability at 50 uM pretreated for 3 hrs followed by amyloid beta(1-42) challenge measured after 24 hrs by MTT assay (reference value: 37.53 +/- 1.4 %); assay type: functional; conditions: read-out: Activity
SH-SY5Y [9] = assay: Neuro-antioxidant activity in human SH-SY5Y cells assessed as H2O2-induced increase in intracellular ROS generation at 50 uM preincubated for 6 hrs followed by H2O2 challenge for 24 hrs by DCFH-DA staining-based fluorescence assay relative to control (reference value: 119.61 +/- 5.269%); assay type: functional
SH-SY5Y [10] = assay: Neuro-antioxidant activity against H2O2-induced oxidative stress in human SH-SY5Y cells assessed as intracellular ROS generation at 5 uM preincubated for 6 hrs followed by H2O2 challenge for 24 hrs by DCFH-DA staining-based fluorescence assay (reference value: 119.61 +/- 5.269%); assay type: functional
SH-SY5Y [11] = assay: Neuroprotective activity against amyloid beta (1 to 42 residues) induced cytotoxicity in human SH-SY5Y cells assessed as cell viability at 30 uM pretreated for 3 hrs followed by amyloid beta(1-42) challenge measured after 24 hrs by MTT assay (reference value: 37.53 +/- 1.4 %); assay type: functional; conditions: read-out: Activity
SH-SY5Y [12] = assay: Neuroprotective activity against H2O2-induced cytotoxicity in human SH-SY5Y cells assessed as increase in cell viability pretreated for 3 hrs followed by H2O2 challenge measured after 24 hrs by MTT assay; assay type: functional, cell-based
[13] = Metal chelating activity assessed as compound-Mg2+ complex formation at 20 uM in presence of MgCl2 after 1 hr by UV-visible spectrophotometric analysis
[14] = Metal chelating activity assessed as compound-Ca2+ complex formation at 20 uM in presence of CaCl2 after 1 hr by UV-visible spectrophotometric analysis
SH-SY5Y [15] = assay: Neuro-antioxidant activity against H2O2-induced oxidative stress in human SH-SY5Y cells assessed as intracellular ROS generation at 20 uM preincubated for 6 hrs followed by H2O2 challenge for 24 hrs by DCFH-DA staining-based fluorescence assay (reference value: 119.61 +/- 5.269%); assay type: functional
[16] = Metal chelating activity assessed as compound-Al3+ complex formation at 20 uM in presence of AlCl3 after 1 hr by UV-visible spectrophotometric analysis
PC-12 [17] = assay: Neuroprotective activity against H2O2 induced cytotoxicity in rat PC12 cells assessed as increase in cell viability pretreated for 3 hrs followed by H2O2 challenge measured after 24 hrs by MTT assay; assay type: functional, cell-based
SH-SY5Y [18] = assay: Neuro-antioxidant activity against H2O2-induced oxidative stress in human SH-SY5Y cells assessed as intracellular ROS generation at 1 uM preincubated for 6 hrs followed by H2O2 challenge for 24 hrs by DCFH-DA staining-based fluorescence assay (reference value: 119.61 +/- 5.269%); assay type: functional
SH-SY5Y [19] = assay: Neuroprotective activity against H2O2-induced cytotoxicity in human SH-SY5Y cells assessed as cell viability at 50 uM pretreated for 3 hrs followed by H2O2 challenge measured after 24 hrs by MTT assay (reference value: 42.69 +/- 0.8%); assay type: functional; conditions: read-out: Activity
SH-SY5Y [20] = assay: Neuro-antioxidant activity against H2O2-induced oxidative stress in human SH-SY5Y cells assessed as intracellular ROS generation at 10 uM preincubated for 6 hrs followed by H2O2 challenge for 24 hrs by DCFH-DA staining-based fluorescence assay (reference value: 119.61 +/- 5.269%); assay type: functional
[21] = target: Amyloid-beta precursor protein (Homo sapiens) (UniProt P05067); assay: Inhibition of self-mediated amyloid beta (1 to 42) (unknown origin) aggregation assessed as short and thin fibril formation at 100 uM incubated for 48 hrs by transmission electron microscopic method
SH-SY5Y [22] = assay: Neuroprotective activity against amyloid beta (1 to 42 residues) induced cytotoxicity in human SH-SY5Y cells assessed as cell viability at 10 uM pretreated for 3 hrs followed by amyloid beta(1-42) challenge measured after 24 hrs by MTT assay (reference value: 37.53 +/- 1.4%); assay type: functional; conditions: read-out: Activity
[23] = Metal chelating activity assessed as compound-Cu2+ complex formation at 20 uM in presence of CuCl2 after 1 hr by UV-visible spectrophotometric analysis
[24] = Metal chelating activity assessed as compound-Zn2+ complex formation at 20 uM in presence of ZnCl2 after 1 hr by UV-visible spectrophotometric analysis
[25] = Metal chelating activity assessed as mole fraction of compound required to show 1:1 stoichiometry for compound-Cu2+ complex at 20 uM after 1 hr by UV-Vis absorption spectrophotometric method
SH-SY5Y [26] = assay: Neuroprotective activity against H2O2-induced cytotoxicity in human SH-SY5Y cells assessed as cell viability at 30 uM pretreated for 3 hrs followed by H2O2 challenge measured after 24 hrs by MTT assay (reference value: 42.69 +/- 0.8%); assay type: functional; conditions: read-out: Activity
SH-SY5Y [27] = assay: Neuroprotective activity against H2O2-induced cytotoxicity in human SH-SY5Y cells assessed as cell viability at 10 uM pretreated for 3 hrs followed by H2O2 challenge measured after 24 hrs by MTT assay (reference value: 42.69 +/- 0.8%); assay type: functional; conditions: read-out: Activity
SH-SY5Y [28] = assay: Neuroprotective activity against amyloid beta (1 to 42 residues) induced cytotoxicity in human SH-SY5Y cells assessed as increase in cell viability pretreated for 3 hrs followed by amyloid beta (1 to 42 residues) challenge measured after 24 hrs by MTT assay; assay type: functional, cell-based
[29] = Metal chelating activity assessed as compound-Fe2+ complex formation at 20 uM in presence of FeSO4 after 1 hr by UV-visible spectrophotometric analysis

Sequence of Cholinesterase (P81908 whole entry): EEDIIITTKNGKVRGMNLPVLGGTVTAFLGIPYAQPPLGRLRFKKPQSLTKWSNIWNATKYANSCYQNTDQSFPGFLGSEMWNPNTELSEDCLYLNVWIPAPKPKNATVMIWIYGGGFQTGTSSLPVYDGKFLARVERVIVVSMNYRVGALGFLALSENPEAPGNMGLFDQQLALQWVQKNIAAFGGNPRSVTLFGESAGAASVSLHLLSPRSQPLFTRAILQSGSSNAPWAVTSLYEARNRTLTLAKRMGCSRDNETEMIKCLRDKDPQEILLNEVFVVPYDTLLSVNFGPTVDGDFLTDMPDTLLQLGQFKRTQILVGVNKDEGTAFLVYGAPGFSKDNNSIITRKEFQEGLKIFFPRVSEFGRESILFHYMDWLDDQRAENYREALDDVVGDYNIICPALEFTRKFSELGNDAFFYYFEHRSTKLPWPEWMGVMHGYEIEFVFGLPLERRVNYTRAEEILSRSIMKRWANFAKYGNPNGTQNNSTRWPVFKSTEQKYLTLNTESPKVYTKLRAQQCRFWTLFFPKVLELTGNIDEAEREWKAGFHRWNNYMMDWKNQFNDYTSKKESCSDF
Sequence of Acetylcholinesterase (O42275 whole entry): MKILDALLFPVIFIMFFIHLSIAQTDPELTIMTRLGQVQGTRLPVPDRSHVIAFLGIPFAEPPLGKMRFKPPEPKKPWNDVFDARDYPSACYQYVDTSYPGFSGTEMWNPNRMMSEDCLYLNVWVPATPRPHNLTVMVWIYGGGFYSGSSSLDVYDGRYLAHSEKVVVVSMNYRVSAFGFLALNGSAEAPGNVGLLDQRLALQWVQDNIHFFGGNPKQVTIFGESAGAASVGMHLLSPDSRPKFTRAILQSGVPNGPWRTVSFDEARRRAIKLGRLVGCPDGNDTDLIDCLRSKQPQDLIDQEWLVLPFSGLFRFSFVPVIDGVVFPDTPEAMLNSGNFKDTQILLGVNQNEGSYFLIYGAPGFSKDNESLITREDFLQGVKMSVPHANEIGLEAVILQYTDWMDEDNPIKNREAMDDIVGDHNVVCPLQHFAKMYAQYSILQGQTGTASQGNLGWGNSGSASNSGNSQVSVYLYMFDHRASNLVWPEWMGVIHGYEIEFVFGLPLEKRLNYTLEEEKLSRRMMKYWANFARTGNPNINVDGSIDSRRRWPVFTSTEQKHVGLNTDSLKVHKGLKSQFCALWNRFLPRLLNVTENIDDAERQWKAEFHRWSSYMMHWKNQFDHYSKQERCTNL
Sequence of Cholinesterase (Equus caballus) (P81908 whole entry, the tested form may be a part): as the sequence (P81908 whole entry) above
Sequence of Amyloid-beta precursor protein (Homo sapiens) (P05067 whole entry, the tested form may be a part): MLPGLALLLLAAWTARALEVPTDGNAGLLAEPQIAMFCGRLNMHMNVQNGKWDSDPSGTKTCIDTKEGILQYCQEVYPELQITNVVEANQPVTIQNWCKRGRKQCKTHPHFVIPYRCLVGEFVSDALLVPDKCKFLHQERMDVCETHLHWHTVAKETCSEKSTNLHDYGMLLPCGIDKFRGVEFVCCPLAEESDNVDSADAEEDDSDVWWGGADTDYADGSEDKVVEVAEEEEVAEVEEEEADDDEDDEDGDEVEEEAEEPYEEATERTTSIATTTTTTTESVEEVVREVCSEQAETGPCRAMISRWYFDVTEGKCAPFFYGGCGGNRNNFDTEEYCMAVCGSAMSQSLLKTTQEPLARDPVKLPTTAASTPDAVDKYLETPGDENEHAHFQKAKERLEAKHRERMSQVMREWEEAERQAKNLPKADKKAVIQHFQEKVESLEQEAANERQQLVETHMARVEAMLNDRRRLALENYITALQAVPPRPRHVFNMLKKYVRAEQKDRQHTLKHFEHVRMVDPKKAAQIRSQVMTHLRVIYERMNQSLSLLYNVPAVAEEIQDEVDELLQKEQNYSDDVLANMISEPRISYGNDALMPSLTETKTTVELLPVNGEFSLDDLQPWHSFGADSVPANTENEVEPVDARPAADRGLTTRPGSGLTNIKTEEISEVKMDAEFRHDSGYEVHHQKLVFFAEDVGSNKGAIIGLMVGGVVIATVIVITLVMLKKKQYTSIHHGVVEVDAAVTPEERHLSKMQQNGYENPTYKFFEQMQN

`O=c1c2cc(NS(=O)(=O)c3cccc(C(F)(F)F)c3)ccc2nc2n1CCc1c-2[nH]c2ccccc12` gave an IC50 (Acetylcholinesterase) greater than 100 µM, a viability at 5 µM (PC-12 [1]) of 50.7% and a viability at 30 µM (PC-12 [2]) of 53.5%. The IC50 (Cholinesterase) was 3.82 µM, the viability at 50 µM (PC-12 [3]) was 55.9% and the viability at 10 µM (PC-12 [4]) was 53.2%. It also gave a logD at 48 h [5] of 3.01 and a viability at 1 µM (PC-12 [6]) of 49.1%.

For `O=c1c2cc(NS(=O)(=O)c3ccccc3OC(F)(F)F)ccc2nc2n1CCc1c-2[nH]c2ccccc12`, the inhibition [7] was “Active”, the viability at 50 µM (SH-SY5Y [8]) was 64.2% and the IC50 (Acetylcholinesterase) was greater than 100 µM. For the same molecule, the Activity (SH-SY5Y [9]) was 98.502%, the viability at 5 µM (PC-12 [1]) was 45.3% and the Activity (SH-SY5Y [10]) was 84.23%. The viability at 30 µM (SH-SY5Y [11]) was 57.6%, the Activity (SH-SY5Y [12]) was “Dose-dependent effect” and the Activity [13] was “inactive”. The Activity [14] was “inactive”, the viability at 30 µM (PC-12 [2]) was 59.9% and the Activity (SH-SY5Y [15]) was 105.494%. The Activity [16] was “inactive”, the IC50 (Cholinesterase) was 3.6 µM and the Activity (PC-12 [17]) was “Dose-dependent effect”. The Activity (SH-SY5Y [18]) was 83.17%, the viability at 50 µM (SH-SY5Y [19]) was 61.9% and the viability at 50 µM (PC-12 [3]) was 63.8%. For the same molecule, the Activity (SH-SY5Y [20]) was 82.464%, the inhibition [21] was “Active” and the viability at 10 µM (SH-SY5Y [22]) was 47.9%. For the same molecule, the Activity [23] was “Active”, the viability at 10 µM (PC-12 [4]) was 59.7% and the Activity [24] was “inactive”. It also gave a logD at 48 h [5] of 3.62, an Activity [25] of 1.1 molar ratio and a viability at 1 µM (PC-12 [6]) of 44.3%. For the same molecule, the viability at 30 µM (SH-SY5Y [26]) was 61.7%, the viability at 10 µM (SH-SY5Y [27]) was 53.9% and the Activity (SH-SY5Y [28]) was “Dose-dependent effect”. The Activity [29] was “inactive”.

With `O=c1c2cc(NS(=O)(=O)c3ccc(F)cc3)ccc2nc2n1CCc1c-2[nH]c2ccccc12` the IC50 (Acetylcholinesterase) was greater than 100 µM, the viability at 5 µM (PC-12 [1]) was 44.7% and the viability at 30 µM (PC-12 [2]) was 46.6%. The IC50 (Cholinesterase) was 7.57 µM, the viability at 50 µM (PC-12 [3]) was 51.8% and the viability at 10 µM (PC-12 [4]) was 45.5%. It also gave a logD at 48 h [5] of 2.25 and a viability at 1 µM (PC-12 [6]) of 41.9%.

Work on `O=c1c2cc(NS(=O)(=O)c3cc(Cl)cc(Cl)c3)ccc2nc2n1CCc1c-2[nH]c2ccccc12` yielded an IC50 (Acetylcholinesterase) of 84.4 µM, a viability at 5 µM (PC-12 [1]) of 45.3% and a viability at 30 µM (PC-12 [2]) of 59.6%. For the same molecule, the IC50 (Cholinesterase) was 7.94 µM, the Activity (PC-12 [17]) was “Dose-dependent effect” and the viability at 50 µM (PC-12 [3]) was 69.5%. For the same molecule, the viability at 10 µM (PC-12 [4]) was 47.9%, the logD at 48 h [5] was 3.21 and the viability at 1 µM (PC-12 [6]) was 42.4%.

In the case of `O=c1c2cc(NS(=O)(=O)c3ccc(OC(F)(F)F)cc3)ccc2nc2n1CCc1c-2[nH]c2ccccc12`, the IC50 (Acetylcholinesterase) is reported as 34.6 µM, the viability at 5 µM (PC-12 [1]) is reported as 55.9% and the viability at 30 µM (PC-12 [2]) is reported as 61.8%. The IC50 (Cholinesterase) was 3.95 µM, the Activity (PC-12 [17]) was “Dose-dependent effect” and the viability at 50 µM (PC-12 [3]) was 63.8%. It also gave a viability at 10 µM (PC-12 [4]) of 60.1%, a logD at 48 h [5] of 3.62 and a viability at 1 µM (PC-12 [6]) of 51.6%.

In the case of `O=c1c2cc(NS(=O)(=O)c3ccc(C(F)(F)F)cc3)ccc2nc2n1CCc1c-2[nH]c2ccccc12`, the IC50 (Acetylcholinesterase) is reported as greater than 100 µM, the viability at 5 µM (PC-12 [1]) is reported as 54.9% and the viability at 30 µM (PC-12 [2]) is reported as 56.5%. The IC50 (Cholinesterase) was 8.28 µM, the Activity (PC-12 [17]) was “Dose-dependent effect” and the viability at 50 µM (PC-12 [3]) was 60.1%. For the same molecule, the viability at 10 µM (PC-12 [4]) was 56.1%, the logD at 48 h [5] was 3.01 and the viability at 1 µM (PC-12 [6]) was 43.6%.

Work on `CC(=O)c1ccc(S(=O)(=O)Nc2ccc3nc4n(c(=O)c3c2)CCc2c-4[nH]c3ccccc23)cc1` yielded an IC50 (Acetylcholinesterase) greater than 100 µM, a viability at 5 µM (PC-12 [1]) of 48% and a viability at 30 µM (PC-12 [2]) of 57.7%. For the same molecule, the IC50 (Cholinesterase) was 25.8 µM, the Activity (PC-12 [17]) was “Dose-dependent effect” and the viability at 50 µM (PC-12 [3]) was 59.8%. For the same molecule, the viability at 10 µM (PC-12 [4]) was 54.4% and the viability at 1 µM (PC-12 [6]) was 46.7%.

`O=c1c2cc(NS(=O)(=O)c3ccc(Br)s3)ccc2nc2n1CCc1c-2[nH]c2ccccc12` gave an IC50 (Acetylcholinesterase) of 83.4 µM, a viability at 5 µM (PC-12 [1]) of 52.3% and a viability at 30 µM (PC-12 [2]) of 56.2%. For the same molecule, the IC50 (Cholinesterase) was 60.3 µM, the Activity (PC-12 [17]) was “Dose-dependent effect” and the viability at 50 µM (PC-12 [3]) was 58.2%. It also gave a viability at 10 µM (PC-12 [4]) of 55.1%, a logD at 48 h [5] of 2.91 and a viability at 1 µM (PC-12 [6]) of 52%.

`O=c1c2cc(NS(=O)(=O)c3ccc(F)c(Cl)c3)ccc2nc2n1CCc1c-2[nH]c2ccccc12` showed an IC50 (Acetylcholinesterase) of 85.6 µM, a viability at 5 µM (PC-12 [1]) of 50.8% and a viability at 30 µM (PC-12 [2]) of 59.4%. For the same molecule, the IC50 (Cholinesterase) was 4.63 µM, the Activity (PC-12 [17]) was “Dose-dependent effect” and the viability at 50 µM (PC-12 [3]) was 61.1%. It also gave a viability at 10 µM (PC-12 [4]) of 58.1%, a logD at 48 h [5] of 2.81 and a viability at 1 µM (PC-12 [6]) of 48.1%.
